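Grown in 96-well plates, cells were treated for 48 hours with each compound at five concentrations. Insufficient inhibition: endpoint recorded as highest concentration tested. The concentration for 50% growth inhibition is given as GI50. TGI: total growth inhibition.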
Assays:
Experiment in all cases: NCI-60 cell line screen, 48 h
786-0 renal = tested on: 786-0 renal
A498 renal = tested on: A498 renal
A549 NSCLC = tested on: A549 NSCLC
ACHN renal = tested on: ACHN renal
BT-549 breast = tested on: BT-549 breast
CAKI-1 renal = tested on: CAKI-1 renal
CCRF-CEM leukemia = tested on: CCRF-CEM leukemia
COLO 205 colon = tested on: COLO 205 colon
DU-145 prostate = tested on: DU-145 prostate
EKVX NSCLC = tested on: EKVX NSCLC
HCC-2998 colon = tested on: HCC-2998 colon
HCT-116 colon = tested on: HCT-116 colon
HCT-15 colon = tested on: HCT-15 colon
HL-60(TB) leukemia = tested on: HL-60(TB) leukemia
HOP-62 NSCLC = tested on: HOP-62 NSCLC
HOP-92 NSCLC = tested on: HOP-92 NSCLC
HS 578T breast = tested on: HS 578T breast
HT29 colon = tested on: HT29 colon
IGROV1 ovarian = tested on: IGROV1 ovarian
K-562 leukemia = tested on: K-562 leukemia
KM12 colon = tested on: KM12 colon
LOX IMVI melanoma = tested on: LOX IMVI melanoma
M14 melanoma = tested on: M14 melanoma
MALME-3M melanoma = tested on: MALME-3M melanoma
MCF7 breast = tested on: MCF7 breast
MDA-MB-231 breast = tested on: MDA-MB-231 breast
MDA-MB-435 = tested on: MDA-MB-435
MDA-MB-468 breast = tested on: MDA-MB-468 breast
MOLT-4 leukemia = tested on: MOLT-4 leukemia
NCI-H226 lung = tested on: NCI-H226 lung
NCI-H23 lung = tested on: NCI-H23 lung
NCI-H460 lung = tested on: NCI-H460 lung
NCI-H522 lung = tested on: NCI-H522 lung
NCI/ADR-RES ovarian = tested on: NCI/ADR-RES ovarian
OVCAR-3 ovarian = tested on: OVCAR-3 ovarian
OVCAR-4 ovarian = tested on: OVCAR-4 ovarian
OVCAR-5 ovarian = tested on: OVCAR-5 ovarian
OVCAR-8 ovarian = tested on: OVCAR-8 ovarian
PC-3 prostate = tested on: PC-3 prostate
RPMI-8226 leukemia = tested on: RPMI-8226 leukemia
RXF 393 renal = tested on: RXF 393 renal
SF-268 CNS = tested on: SF-268 CNS
SF-295 CNS = tested on: SF-295 CNS
SF-539 CNS = tested on: SF-539 CNS
SK-MEL-2 melanoma = tested on: SK-MEL-2 melanoma
SK-MEL-28 melanoma = tested on: SK-MEL-28 melanoma
SK-MEL-5 melanoma = tested on: SK-MEL-5 melanoma
SK-OV-3 ovarian = tested on: SK-OV-3 ovarian
SN12C renal = tested on: SN12C renal
SNB-19 CNS = tested on: SNB-19 CNS
SNB-75 CNS = tested on: SNB-75 CNS
SR leukemia = tested on: SR leukemia
SW-620 colon = tested on: SW-620 colon
T-47D breast = tested on: T-47D breast
TK-10 renal = tested on: TK-10 renal
U251 CNS = tested on: U251 CNS
UACC-257 melanoma = tested on: UACC-257 melanoma
UACC-62 melanoma = tested on: UACC-62 melanoma
UO-31 renal = tested on: UO-31 renal

CN1CCN(Cc2ccc(C(=O)Nc3cccc(C#Cc4cccc5[nH]nc(N)c45)c3)cc2C(F)(F)F)CC1
GI50 (786-0 renal): 1280 nM | TGI (786-0 renal): 2610 nM | GI50 (A498 renal): 2380 nM | TGI (A498 renal): 3950 nM | GI50 (A549 NSCLC): 721 nM | TGI (A549 NSCLC): 2010 nM | GI50 (ACHN renal): 409 nM | TGI (ACHN renal): 1400 nM | GI50 (BT-549 breast): 1800 nM | TGI (BT-549 breast): 4060 nM | GI50 (CAKI-1 renal): 1160 nM | TGI (CAKI-1 renal): 2370 nM | GI50 (CCRF-CEM leukemia): 1170 nM | TGI (CCRF-CEM leukemia): 3330 nM | GI50 (COLO 205 colon): 862 nM | TGI (COLO 205 colon): 2210 nM | GI50 (DU-145 prostate): 1200 nM | TGI (DU-145 prostate): 2460 nM | GI50 (EKVX NSCLC): 1090 nM | TGI (EKVX NSCLC): 2300 nM | GI50 (HCC-2998 colon): 880 nM | TGI (HCC-2998 colon): 2190 nM | GI50 (HCT-116 colon): 420 nM | TGI (HCT-116 colon): 1620 nM | GI50 (HCT-15 colon): 648 nM | TGI (HCT-15 colon): 1780 nM | GI50 (HL-60(TB) leukemia): 278 nM | TGI (HL-60(TB) leukemia): 1600 nM | GI50 (HOP-62 NSCLC): 1470 nM | TGI (HOP-62 NSCLC): 2890 nM | GI50 (HOP-92 NSCLC): 285 nM | TGI (HOP-92 NSCLC): 1400 nM | GI50 (HS 578T breast): 1330 nM | TGI (HS 578T breast): 4640 nM | GI50 (HT29 colon): 603 nM | TGI (HT29 colon): 1940 nM | GI50 (IGROV1 ovarian): 387 nM | TGI (IGROV1 ovarian): 1440 nM | TGI (K-562 leukemia): 1020 nM | GI50 (KM12 colon): 1410 nM | TGI (KM12 colon): 2930 nM | GI50 (LOX IMVI melanoma): 469 nM | TGI (LOX IMVI melanoma): 1610 nM | GI50 (M14 melanoma): 420 nM | TGI (M14 melanoma): 1650 nM | GI50 (MALME-3M melanoma): 284 nM | TGI (MALME-3M melanoma): 1200 nM | GI50 (MCF7 breast): 1510 nM | TGI (MCF7 breast): 2900 nM | GI50 (MDA-MB-231 breast): 401 nM | TGI (MDA-MB-231 breast): 1730 nM | GI50 (MDA-MB-435): 1090 nM | TGI (MDA-MB-435): 2450 nM | GI50 (MDA-MB-468 breast): 760 nM | TGI (MDA-MB-468 breast): 2080 nM | GI50 (MOLT-4 leukemia): 494 nM | TGI (MOLT-4 leukemia): 2280 nM | GI50 (NCI-H226 lung): 1000 nM | TGI (NCI-H226 lung): 2180 nM | GI50 (NCI-H23 lung): 1250 nM | TGI (NCI-H23 lung): 2530 nM | GI50 (NCI-H460 lung): 982 nM | TGI (NCI-H460 lung): 2530 nM | GI50 (NCI-H522 lung): 752 nM | TGI (NCI-H522 lung): 2160 nM | GI50 (NCI/ADR-RES ovarian): 1480 nM | TGI (NCI/ADR-RES ovarian): 3320 nM | GI50 (OVCAR-3 ovarian): 1000 nM | TGI (OVCAR-3 ovarian): 2510 nM | GI50 (OVCAR-4 ovarian): 889 nM | TGI (OVCAR-4 ovarian): 3140 nM | GI50 (OVCAR-5 ovarian): 1280 nM | TGI (OVCAR-5 ovarian): 2600 nM | GI50 (OVCAR-8 ovarian): 1160 nM | TGI (OVCAR-8 ovarian): 2380 nM | GI50 (PC-3 prostate): 1000 nM | TGI (PC-3 prostate): 2770 nM | GI50 (RPMI-8226 leukemia): 1120 nM | TGI (RPMI-8226 leukemia): 3260 nM | GI50 (RXF 393 renal): 571 nM | TGI (RXF 393 renal): 1820 nM | GI50 (SF-268 CNS): 1070 nM | TGI (SF-268 CNS): 2420 nM | GI50 (SF-295 CNS): 1330 nM | TGI (SF-295 CNS): 2630 nM | GI50 (SF-539 CNS): 305 nM | TGI (SF-539 CNS): 1350 nM | GI50 (SK-MEL-2 melanoma): 1530 nM | TGI (SK-MEL-2 melanoma): 3030 nM | GI50 (SK-MEL-28 melanoma): 1260 nM | TGI (SK-MEL-28 melanoma): 2530 nM | GI50 (SK-MEL-5 melanoma): 1490 nM | TGI (SK-MEL-5 melanoma): 2810 nM | GI50 (SK-OV-3 ovarian): 1940 nM | TGI (SK-OV-3 ovarian): 3470 nM | GI50 (SN12C renal): 739 nM | TGI (SN12C renal): 2140 nM | GI50 (SNB-19 CNS): 1840 nM | TGI (SNB-19 CNS): 3250 nM | GI50 (SNB-75 CNS): 1450 nM | TGI (SNB-75 CNS): 3690 nM | GI50 (SR leukemia): 1100 nM | TGI (SR leukemia): 3350 nM | GI50 (SW-620 colon): 968 nM | TGI (SW-620 colon): 2370 nM | GI50 (T-47D breast): 1560 nM | TGI (T-47D breast): 3270 nM | GI50 (TK-10 renal): 1750 nM | TGI (TK-10 renal): 3170 nM | GI50 (U251 CNS): 1220 nM | TGI (U251 CNS): 2470 nM | GI50 (UACC-257 melanoma): 1360 nM | TGI (UACC-257 melanoma): 2730 nM | GI50 (UACC-62 melanoma): 1140 nM | TGI (UACC-62 melanoma): 2390 nM | GI50 (UO-31 renal): 854 nM | TGI (UO-31 renal): 2090 nM

Reference: PubChem BioAssay (NCI)
